Data on twelve compounds can be found in ChEMBL document CHEMBL3431459, “Roche carnitine palmitoyltransferase modulator screening data (supplementary data associated with the publication CHEMBL2216752)”.

Values after ≈ are worked out from the molar mass of the structure shown.

For data set [1], the target named is T1, Carnitine O-palmitoyltransferase 1, liver isoform (Homo sapiens, UniProt P50416).
T1 sequence (P50416 whole entry): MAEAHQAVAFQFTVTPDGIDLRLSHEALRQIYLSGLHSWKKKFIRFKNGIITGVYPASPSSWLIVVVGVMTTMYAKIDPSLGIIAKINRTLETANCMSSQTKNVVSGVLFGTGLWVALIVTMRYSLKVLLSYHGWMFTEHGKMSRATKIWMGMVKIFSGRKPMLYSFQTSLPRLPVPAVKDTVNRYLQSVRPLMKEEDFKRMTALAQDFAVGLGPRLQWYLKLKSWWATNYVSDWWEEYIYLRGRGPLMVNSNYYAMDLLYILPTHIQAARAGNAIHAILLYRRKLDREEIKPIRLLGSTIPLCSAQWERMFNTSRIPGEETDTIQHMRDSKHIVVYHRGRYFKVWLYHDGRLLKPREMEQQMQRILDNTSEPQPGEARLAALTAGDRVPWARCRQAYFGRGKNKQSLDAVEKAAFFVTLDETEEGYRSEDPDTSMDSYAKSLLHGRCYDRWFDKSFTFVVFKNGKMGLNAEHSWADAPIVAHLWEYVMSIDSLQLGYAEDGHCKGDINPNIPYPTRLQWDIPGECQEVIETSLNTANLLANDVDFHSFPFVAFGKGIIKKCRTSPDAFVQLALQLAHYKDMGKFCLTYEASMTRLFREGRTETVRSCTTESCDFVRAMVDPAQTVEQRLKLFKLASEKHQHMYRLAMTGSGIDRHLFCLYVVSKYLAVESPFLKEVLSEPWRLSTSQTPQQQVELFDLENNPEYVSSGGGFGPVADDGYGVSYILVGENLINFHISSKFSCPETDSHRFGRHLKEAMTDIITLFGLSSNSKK
The data set can be described thus: SUPPLEMENTARY: Inhibition of Carnitine palmitoyltransferase 1, liver isoform.

Data set [2] in a line: SUPPLEMENTARY: Lipophilicity (log D) Determination by high-throughput shake-flask. The class given is physicochemical. To be noted: octanol/water.
The target in data set [3] is T2, Carnitine O-palmitoyltransferase 1, muscle isoform (Homo sapiens, UniProt Q92523).
T2 sequence (Q92523 whole entry): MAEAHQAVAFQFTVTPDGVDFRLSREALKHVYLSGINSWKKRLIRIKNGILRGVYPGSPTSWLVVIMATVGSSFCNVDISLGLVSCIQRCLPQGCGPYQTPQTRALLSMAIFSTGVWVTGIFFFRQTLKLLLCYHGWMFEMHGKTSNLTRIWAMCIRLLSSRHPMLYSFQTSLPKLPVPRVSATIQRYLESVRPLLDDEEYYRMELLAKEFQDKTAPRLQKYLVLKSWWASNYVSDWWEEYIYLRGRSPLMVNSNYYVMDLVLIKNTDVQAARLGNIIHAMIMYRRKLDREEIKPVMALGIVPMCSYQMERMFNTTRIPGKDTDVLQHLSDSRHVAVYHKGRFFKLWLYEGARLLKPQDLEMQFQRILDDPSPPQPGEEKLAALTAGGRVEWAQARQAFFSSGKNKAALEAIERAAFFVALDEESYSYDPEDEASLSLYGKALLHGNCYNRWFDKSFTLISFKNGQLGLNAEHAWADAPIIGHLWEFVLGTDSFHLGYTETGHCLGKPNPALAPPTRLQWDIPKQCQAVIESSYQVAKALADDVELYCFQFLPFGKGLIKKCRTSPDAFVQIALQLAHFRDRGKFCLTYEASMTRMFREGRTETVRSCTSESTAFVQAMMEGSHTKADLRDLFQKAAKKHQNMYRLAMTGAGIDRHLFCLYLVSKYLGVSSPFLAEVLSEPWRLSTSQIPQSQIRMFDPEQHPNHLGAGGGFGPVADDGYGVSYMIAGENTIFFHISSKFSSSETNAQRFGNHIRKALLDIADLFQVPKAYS
The data set can be described thus: SUPPLEMENTARY: Inhibition of Carnitine palmitoyltransferase 1, muscle isoform. Also noted: species or system Muscle tissue.

Data set [4] can be described thus: SUPPLEMENTARY: Lyophilisation Solubility Assay (LYSA). The format is physicochemical. To be noted: read-out: Kinetic_solubility.
A short description of data set [5]: SUPPLEMENTARY: PAMPA permeability assay. The format is physicochemical. The following applies: read-out: Permeability.
Data set [6] deals with T3, Carnitine O-palmitoyltransferase 2, mitochondrial (Homo sapiens, UniProt P23786).
T3 sequence (P23786 whole entry): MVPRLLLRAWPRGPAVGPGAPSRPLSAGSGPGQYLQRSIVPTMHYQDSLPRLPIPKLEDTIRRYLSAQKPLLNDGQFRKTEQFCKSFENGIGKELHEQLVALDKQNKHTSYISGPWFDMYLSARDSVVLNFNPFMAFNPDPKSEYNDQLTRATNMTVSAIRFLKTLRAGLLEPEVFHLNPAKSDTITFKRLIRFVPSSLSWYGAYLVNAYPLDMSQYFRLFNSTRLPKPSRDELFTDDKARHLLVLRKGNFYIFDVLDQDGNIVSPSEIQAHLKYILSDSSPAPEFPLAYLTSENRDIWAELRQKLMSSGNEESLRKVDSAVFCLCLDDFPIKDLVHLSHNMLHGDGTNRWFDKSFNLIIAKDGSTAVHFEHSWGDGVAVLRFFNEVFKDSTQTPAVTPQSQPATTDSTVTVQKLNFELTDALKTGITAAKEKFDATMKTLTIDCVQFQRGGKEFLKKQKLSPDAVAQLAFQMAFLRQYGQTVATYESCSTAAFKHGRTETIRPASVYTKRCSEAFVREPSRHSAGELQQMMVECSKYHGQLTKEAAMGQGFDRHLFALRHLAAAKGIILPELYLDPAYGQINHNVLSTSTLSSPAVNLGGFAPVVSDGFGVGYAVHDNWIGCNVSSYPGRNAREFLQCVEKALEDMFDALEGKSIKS
The data set can be described thus: (§1) SUPPLEMENTARY: Inhibition of Carnitine palmitoyltransferase 2.

The target in data set [7] is T4, Carnitine O-palmitoyltransferase 2, mitochondrial (Rattus norvegicus, UniProt P18886).
T4 sequence (P18886 whole entry): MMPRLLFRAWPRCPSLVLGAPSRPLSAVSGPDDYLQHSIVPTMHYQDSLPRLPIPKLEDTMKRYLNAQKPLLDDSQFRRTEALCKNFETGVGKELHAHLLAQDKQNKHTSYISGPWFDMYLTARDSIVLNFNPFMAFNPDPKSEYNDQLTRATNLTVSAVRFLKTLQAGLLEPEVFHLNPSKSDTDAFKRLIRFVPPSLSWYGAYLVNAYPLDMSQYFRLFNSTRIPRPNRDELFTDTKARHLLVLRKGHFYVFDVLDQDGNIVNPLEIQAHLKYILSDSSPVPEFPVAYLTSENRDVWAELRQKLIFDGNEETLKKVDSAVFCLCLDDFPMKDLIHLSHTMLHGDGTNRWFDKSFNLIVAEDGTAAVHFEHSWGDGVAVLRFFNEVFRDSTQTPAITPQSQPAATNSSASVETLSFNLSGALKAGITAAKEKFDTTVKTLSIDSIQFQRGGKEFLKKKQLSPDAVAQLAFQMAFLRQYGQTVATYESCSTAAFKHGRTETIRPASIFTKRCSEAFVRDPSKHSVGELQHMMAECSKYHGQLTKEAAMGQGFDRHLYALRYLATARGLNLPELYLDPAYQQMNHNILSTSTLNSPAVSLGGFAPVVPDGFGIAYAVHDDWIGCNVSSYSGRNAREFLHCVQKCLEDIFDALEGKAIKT
Described as §1.

As for `CN(CCOc1ccc(CC2SC(=O)NC2=O)cc1)c1ccccn1` (centres undefined) [ROSIGLITAZONE], the IC50 – broadly, the concentration at which inhibition is half-maximal – in data set [1] is greater than 10 µM; in data set [3], greater than 100 µM; in data set [6], greater than 100 µM; in data set [7], greater than 100 µM. Also, the logD (as a rule, lipophilicity at a set pH, counting ionised and neutral species) in data set [2] was found to be 2.49. For the same compound, the solubility kinetic in data set [4] was 92 µg/mL (≈ 257 µM). The Papp in data set [5] came out at 7.65 ×10⁻⁶ cm/s.

For the compound `COc1ccc2[nH]cc(C(=O)COc3ccncc3)c2c1`, the IC50 in data set [1] was 0.658 µM; in data set [3], greater than 100 µM; in data set [6], greater than 100 µM; in data set [7] it was greater than 100 µM. In data set [2], this compound gave a logD of 0.42. Besides, the solubility kinetic in data set [4] turned out to be 88 µg/mL (≈ 312 µM). In data set [5], the Papp stood at 0.02 ×10⁻⁶ cm/s.

For the compound `O=C(NCc1ccccc1)[C@H]1CCCCN1C(=O)COc1ccccc1`, the half-inhibitory concentration (IC50) in data set [1] was 2.55 µM; in data set [3] it was greater than 100 µM; in data set [6] it was greater than 100 µM; in data set [7], greater than 100 µM. The compound also yielded a pH-dependent lipophilicity (logD) in data set [2] of 2.51. In data set [4], the solubility kinetic turned out to be 43 µg/mL (≈ 122 µM). In addition, the Papp in data set [5] was determined as 7.12 ×10⁻⁶ cm/s.

Turning to `O=C1CCC(=O)N1c1cccc(-c2n[nH]c([C@H]3CCCCN3C(=O)COc3ccccc3)n2)c1`, the IC50 in data set [1] was 0.127 µM; in data set [3], greater than 100 µM; in data set [6], 21.4 µM; in data set [7], 63.5 µM. The same compound returned a log distribution coefficient (logD) in data set [2] of 1.51. For the same compound, in data set [4], the solubility kinetic stood at 172 µg/mL (≈ 373 µM). For the same compound, in data set [5], the Papp stood at 3.3 ×10⁻⁶ cm/s.

`CN(Cc1ccccc1)C(=O)[C@H]1CCCCN1C(=O)COc1ccccc1`: the IC50 in data set [1] is 1.94 µM; in data set [3], greater than 100 µM; in data set [6], 2.67 µM; in data set [7], 6.84 µM. Further, in data set [2], the logD came out at 2.62. For the same compound, the solubility kinetic in data set [4] is 112 µg/mL (≈ 306 µM). Moreover, in data set [5], the Papp is 9.1 ×10⁻⁶ cm/s.

`CCc1ccc(CCOc2ccc(CC3SC(=O)NC3=O)cc2)nc1` (centres undefined) [PIOGLITAZONE]: the half-inhibitory concentration (IC50) in data set [1] is greater than 10 µM; in data set [3], greater than 100 µM; in data set [6], greater than 100 µM; in data set [7], greater than 100 µM. The logD in data set [2] stood at 4. Also, the solubility kinetic in data set [4] is less than 1 µg/mL. In data set [5], the Papp stood at 7.49 ×10⁻⁶ cm/s.

Turning to `COc1ccc(Cl)cc1S(=O)(=O)N1COc2c(C)cc(C(=O)Nc3ccc(CC(=O)O)cc3)cc21`, the IC50 in data set [1] is 0.375 µM; in data set [3], 2.29 µM; in data set [6], greater than 100 µM; in data set [7] it was greater than 100 µM. The compound further returned a logD in data set [2] of 0.65. Besides, in data set [4], the solubility kinetic was 509 µg/mL (≈ 985 µM). Besides, in data set [5], the Papp was 3.17 ×10⁻⁶ cm/s.

`NS(=O)(=O)c1ccc2c(c1)CN(C(=O)[C@H]1CCCCN1C(=O)COc1ccccc1)CC2`: the half-inhibitory concentration (IC50) in data set [1] was 0.824 µM; in data set [3], greater than 100 µM; in data set [6] it was 7.15 µM; in data set [7] it was 45.6 µM. This compound came in with a logD in data set [2] of 1.41. Further, in data set [4], the solubility kinetic was 175 µg/mL (≈ 382 µM). For the same compound, the Papp in data set [5] was determined as 4.46 ×10⁻⁶ cm/s.

As for `COc1ccc(Cl)cc1S(=O)(=O)N1CCOc2ccc(C(=O)Nc3nc(CC(=O)O)cs3)cc21`, the IC50 is 0.0505 µM in data set [1], 0.423 µM in data set [3], greater than 100 µM in data set [6] and greater than 100 µM in data set [7]. Besides, in data set [2], the logD was -0.01. In addition, the solubility kinetic in data set [4] is 26 µg/mL (≈ 49.6 µM). The Papp in data set [5] is 1.62 ×10⁻⁶ cm/s.

As to `COc1ccc(Cl)cc1CN1C(=O)OC(C)(C)c2ccc(C(=O)Nc3ccc(CC(=O)O)c(Cl)c3)cc21`, the half-maximal inhibitory concentration (IC50) is 0.331 µM in data set [1], 1.87 µM in data set [3], greater than 100 µM in data set [6] and greater than 100 µM in data set [7]. In data set [2], this compound returned a logD of 1.83. The solubility kinetic in data set [4] was 25 µg/mL (≈ 46 µM). Moreover, in data set [5], the Papp was determined as 1.36 ×10⁻⁶ cm/s.

For the compound `O=C(c1nc([C@H]2CCCCN2C(=O)COc2ccccc2)no1)N1CCOCC1`, the half-maximal inhibitory concentration (IC50) in data set [1] was 0.315 µM; in data set [3], greater than 100 µM; in data set [6], 34.2 µM; in data set [7], greater than 100 µM. Also, in data set [2], the logD came out at 1.47. In data set [4], the solubility kinetic was greater than 467 µg/mL. In data set [5], the Papp is 8.06 ×10⁻⁶ cm/s.

`COc1ccc(Cl)cc1S(=O)(=O)N(C)c1cccc(C(=O)Nc2nc(CC(=O)O)cs2)c1`: the IC50 in data set [1] is 0.0614 µM; in data set [3], 1.44 µM; in data set [6] it was greater than 100 µM; in data set [7], greater than 100 µM. The same compound yielded a logD in data set [2] of 0.02. Moreover, the solubility kinetic in data set [4] was greater than 549 µg/mL. Further, in data set [5], the Papp is 2.48 ×10⁻⁶ cm/s.
